Measured values: PubChem BioAssay (NCI)
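96-well plates; 48 h exposure; 5 concentrations. Endpoints by linear interpolation between flanking doses. Not reached: highest tested concentration assigned. Abbreviation: GI50, concentration required for 50% inhibition of growth. TGI: concentration producing complete growth inhibition.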

Columns and labels:
Test in all cases: NCI-60 cell line screen, 48 h
[1] = system: SNB-78 CNS
[2] = system: RXF-631 renal
[3] = system: OVCAR-3 ovarian
[4] = system: SK-MEL-28 melanoma
[5] = system: SK-MEL-2 melanoma
[6] = system: M14 melanoma
[7] = system: KM20L2 colon
[8] = system: HOP-18 NSCLC
[9] = system: M19-MEL melanoma
[10] = system: SK-MEL-5 melanoma
[11] = system: HT29 colon
[12] = system: OVCAR-5 ovarian
[13] = system: HL-60(TB) leukemia
[14] = system: HCC-2998 colon
[15] = system: LOX IMVI melanoma
[16] = system: EKVX NSCLC
[17] = system: OVCAR-8 ovarian
[18] = system: CCRF-CEM leukemia
[19] = system: NCI-H460 lung
[20] = system: RXF 393 renal
[21] = system: A549 NSCLC
[22] = system: U251 CNS
[23] = system: SF-268 CNS
[24] = system: SW-620 colon
[25] = system: HCT-15 colon
[26] = system: K-562 leukemia
[27] = system: LXFL 529 NSCLC
[28] = system: SF-539 CNS
[29] = system: ACHN renal
[30] = system: SR leukemia
[31] = system: UACC-62 melanoma
[32] = system: NCI-H226 lung
[33] = system: RPMI-8226 leukemia
[34] = system: XF 498 CNS
[35] = system: SK-OV-3 ovarian
[36] = system: UO-31 renal
[37] = system: HOP-92 NSCLC
[38] = system: DLD-1 colon
[39] = system: SN12C renal
[40] = system: MALME-3M melanoma
[41] = system: NCI-H23 lung
[42] = system: SF-295 CNS
[43] = system: SNB-19 CNS
[44] = system: KM12 colon
[45] = system: UACC-257 melanoma
[46] = system: TK-10 renal
[47] = system: HCT-116 colon
[48] = system: CAKI-1 renal
[49] = system: DMS 273 small cell lung
[50] = system: COLO 205 colon
[51] = system: IGROV1 ovarian
[52] = system: OVCAR-4 ovarian
[53] = system: MOLT-4 leukemia
[54] = system: 786-0 renal

## O=C([O-])c1ccc(C(=O)[O-])cc1.O=C([O-])c1ccc(C(=O)[O-])cc1.[Mo+2].[Mo+2]
[1]
  GI50: > 100 µM
  TGI: > 100 µM
[2]
  GI50: > 100 µM
  TGI: > 100 µM
[3]
  GI50: > 100 µM
  TGI: > 100 µM
[4]
  GI50: > 100 µM
  TGI: > 100 µM
[5]
  GI50: > 100 µM
  TGI: > 100 µM
[6]
  GI50: > 100 µM
  TGI: > 100 µM
[7]
  GI50: > 100 µM
  TGI: > 100 µM
[8]
  GI50: > 100 µM
  TGI: > 100 µM
[9]
  GI50: > 100 µM
  TGI: > 100 µM
[10]
  GI50: > 100 µM
  TGI: > 100 µM
[11]
  GI50: > 100 µM
  TGI: > 100 µM
[12]
  GI50: > 100 µM
  TGI: > 100 µM
[13]
  GI50: > 100 µM
  TGI: > 100 µM
[14]
  GI50: > 100 µM
  TGI: > 100 µM
[15]
  GI50: > 100 µM
  TGI: > 100 µM
[16]
  GI50: > 100 µM
  TGI: > 100 µM
[17]
  GI50: > 100 µM
  TGI: > 100 µM
[18]
  GI50: > 100 µM
  TGI: > 100 µM
[19]
  GI50: > 100 µM
  TGI: > 100 µM
[20]
  GI50: > 100 µM
  TGI: > 100 µM
[21]
  GI50: > 100 µM
  TGI: > 100 µM
[22]
  GI50: > 100 µM
  TGI: > 100 µM
[23]
  GI50: > 100 µM
  TGI: > 100 µM
[24]
  GI50: > 100 µM
  TGI: > 100 µM
[25]
  GI50: > 100 µM
  TGI: > 100 µM
[26]
  GI50: > 100 µM
  TGI: > 100 µM
[27]
  GI50: > 100 µM
  TGI: > 100 µM
[28]
  GI50: > 100 µM
  TGI: > 100 µM
[29]
  GI50: > 100 µM
  TGI: > 100 µM
[30]
  GI50: > 100 µM
  TGI: > 100 µM
[31]
  GI50: > 100 µM
  TGI: > 100 µM
[32]
  GI50: > 100 µM
  TGI: > 100 µM
[33]
  GI50: > 100 µM
  TGI: > 100 µM
[34]
  GI50: > 100 µM
  TGI: > 100 µM
[35]
  GI50: > 100 µM
  TGI: > 100 µM
[36]
  GI50: > 100 µM
  TGI: > 100 µM
[37]
  GI50: 99.8 µM
  TGI: > 100 µM
[38]
  GI50: > 100 µM
  TGI: > 100 µM
[39]
  GI50: > 100 µM
  TGI: > 100 µM
[40]
  GI50: > 100 µM
  TGI: > 100 µM
[41]
  GI50: > 100 µM
  TGI: > 100 µM
[42]
  GI50: > 100 µM
  TGI: > 100 µM
[43]
  GI50: > 100 µM
  TGI: > 100 µM
[44]
  GI50: > 100 µM
  TGI: > 100 µM
[45]
  GI50: > 100 µM
  TGI: > 100 µM
[46]
  GI50: > 100 µM
  TGI: > 100 µM
[47]
  GI50: > 100 µM
  TGI: > 100 µM
[48]
  GI50: > 100 µM
  TGI: > 100 µM
[49]
  GI50: > 100 µM
  TGI: > 100 µM
[50]
  GI50: > 100 µM
  TGI: > 100 µM
[51]
  GI50: > 100 µM
  TGI: > 100 µM
[52]
  GI50: > 100 µM
  TGI: > 100 µM
[53]
  GI50: > 100 µM
  TGI: > 100 µM
[54]
  GI50: > 100 µM
  TGI: > 100 µM
